Reference: PMC7217877, “N-AS-triggered SPMs are direct regulators of microglia in a model of Alzheimer’s disease” (Nature Communications, 2020)
Where “and” joins values, the source holds several entries; their conditions need not be identical. Identical values can stand only once.

What was measured:
COX2 WT [1] = biological target: T1, COX2 WT (Homo sapiens, UniProt P35354); experiment: in vitro [14C] acetylation assay of purified COX2; assay type: biochemical; design: C14 radioactivity of COX2, acetylation assay (Fig 1h): unit not given here
T1 construct: His (N); made in house
T1 sequence (P35354 18-604): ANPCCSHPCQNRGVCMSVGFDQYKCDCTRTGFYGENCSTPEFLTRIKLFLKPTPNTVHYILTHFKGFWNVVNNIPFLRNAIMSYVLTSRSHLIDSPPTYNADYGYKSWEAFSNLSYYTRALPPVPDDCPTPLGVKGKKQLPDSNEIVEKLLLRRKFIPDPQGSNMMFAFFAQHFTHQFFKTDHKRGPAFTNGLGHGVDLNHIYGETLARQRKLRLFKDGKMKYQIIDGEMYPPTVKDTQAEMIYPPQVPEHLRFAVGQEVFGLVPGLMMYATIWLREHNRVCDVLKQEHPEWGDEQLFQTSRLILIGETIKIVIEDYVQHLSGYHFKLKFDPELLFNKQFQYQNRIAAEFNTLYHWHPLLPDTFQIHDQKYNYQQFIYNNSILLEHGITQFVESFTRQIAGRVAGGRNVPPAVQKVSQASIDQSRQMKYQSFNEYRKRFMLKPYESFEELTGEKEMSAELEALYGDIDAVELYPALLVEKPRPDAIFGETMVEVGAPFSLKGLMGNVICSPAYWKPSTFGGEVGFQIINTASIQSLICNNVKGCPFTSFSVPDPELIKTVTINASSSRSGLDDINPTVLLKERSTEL
Method: Acetylation assays were performed according to previously described procedures with minor modifications. […] To confirm the N-AS-mediated COX2 acetylation, 10 μg COX2 (WT or mutants) was used incubated with [^14C] N-AS (2 μCi, ARC UK Ltd, ARC-1024) at 37 °C for 2 h. [^14C] aspirin (2 μCi, ARC UK Ltd, ARC-0473) was conducted as the positive control. The reactions were terminated by placing the reaction tubes in ice for 5 min. To evaluate in vivo neuronal and microglial COX2 acetylation, 10 μCi [^14C] N-AS was orally administrated to 9-months-old WT and APP/PS1 mice. After 1 h, neuron and microglia were isolated and sonicated in culture media. To immunoprecipitate acetylated COX2, the sample was incubated with COX2 antibody (Abcam, ab15191) at 4 °C for 24 h and precipitated by adding 50 μl of protein-A sepharose (GE Healthcare). Acetylated COX2 proteins bound to the beads were analyzed using a Tri-Carb 3110TR liquid scintillation counter (Perkin-Elmer).

COX2 WT [2] = biological target: T1, COX2 WT; experiment: filter binding assay of [14C] N-AS to COX2; conditions: COX2 Control; 0.2 uM (20 pmol); replicates
APP/PS1 mice = experiment: Morris water maze test (Fig 6k-q); assay type: in vivo, mouse; design: Morris water maze learning curve (Figure 6k) / Morris water maze learning curve (Figure 6k), group mean (평균) / Morris water maze, Non-Target quadrant (Figure 6l) / Morris water maze, Target quadrant (Figure 6l) / Morris water maze, A0 (Target quadrant) (Figure 6m) / Morris water maze, quadrant A1 (Figure 6m) / Morris water maze, quadrant A2 (Figure 6m) / Morris water maze, quadrant A3 (Figure 6m): unit not given here; conditions: for Morris water maze learning curve (Figure 6k), group mean (평균): AD/N-AS group mean; for Morris water maze learning curve (Figure 6k): AD/N-AS individual animals
Method: Transgenic mouse lines over-expressing the hAPP695swe (APP) and presenilin-1M146V (PS1) mutations were originated from GlaxoSmithKline (Harlow, UK)[32] and maintained as described previously. We purchased 5×FAD mice from Jackson Labs (Stock number. 34840-JAX). Because APP/PS1 and 5xFAD mice show sex differences in disease progression, we used only male mice. To examine possible therapeutic effect of N-AS and aspirin in APP/PS1 mice, the N-AS (30 mg kg^−1, Sigma-Aldrich, 01912) was injected daily s.c. for 8 weeks to 7-months-old APP/PS1 mice until the age of 9 months, and aspirin (2 mg kg^−1, Sigma-Aldrich, A5376)[33] was administrated orally to 7-months-old APP/PS1 mice for 8 weeks. […] Block randomization method was used to allocate the animals to experimental groups. To eliminate the bias, we were blinded in experimental progress such as data collection and data analysis. Mice were housed at temperature of 22 °C and a 12 h day/12 h night cycle with free access to tap water and food pellets. All protocols were approved by the Kyungpook National University Institutional Animal Care and Use Committee. We performed behavioral studies to assess spatial learning and memory in the Morris water maze as previously described[11],[31]. Animals were given four trials per day for 10 days to learn the task. At day 11, animals were given a probe trial in which the platform was removed. Fear conditioning was conducted by previously described techniques. On the conditioning day, mice were individually placed into the conditioning chamber. After a 60 s exploratory period, a tone (10 kHz, 70 dB) was delivered for 10 s; this served as the conditioned stimulus (CS). The CS co-terminated with the unconditioned stimulus (US), a scrambled electrical footshock (0.3 mA, 1 s). The CS-US pairing was delivered twice at a 20 s intertrial interval. On day 2, each mouse was placed in the fear-conditioning chamber containing the same exact context, but with no administration of a CS or foot shock. Freezing was analyzed for 5 min. On day 3, a mouse was placed in a test chamber that was different from the conditioning chamber. After a 60 s exploratory period, the tone was presented for 60 s without the footshock. The rate of freezing response of mice was used to measure the fear memory. The open field test was used for locomotion and anxious behaviors as previously described. The open field box consisted of a square box. Each animal was placed in the box for 10 min. Overall activity in the box was measured, and the amount of time and distance traveled in the center arena was noted. After each trial, the test chambers were cleaned with a damp towel and distilled water followed by 70% alcohol. The light-dark test was used for assessing the anxiety-like behavior as previously described. One chamber was brightly illuminated, whereas the other chamber was dark. Mice were placed into the dark chamber and allowed to move freely between the two chambers with the door open for 10 min. The total number of transitions, latency to first enter the light chamber, distance traveled, and time spent in each chamber were recorded.

[3] = APP/PS1 + N-AS, individual animals

**Q.** Which “C14 radioactivity of COX2, acetylation assay (Fig 1h)” value (COX2 WT [1]; COX2 WT, replicates, listed as C14 N-AS) does the source give for `CCCCCCCCCCCCC/C=C/[C@@H](O)[C@H](CO)NC(C)=O` [N-AS, N-((2S,3R,E)-1,3-Dihydroxyoctadec-4-en-2-yl)acetamide] here?
**A.** 278534 and 277829 and 277497 and 262864 and 273318 and 276027

**Q.** And the “COX2 acetylation level, in words” value (COX2 WT [1]; [14C] N-AS vs aspirin or SphK1-mediated acetylation)?
**A.** higher-level acetylation

**Q.** And the “binding velocity (Vbinding)” value (COX2 WT [2])?
**A.** 0.350 nM/min and 0.395 nM/min and 0.289 nM/min

**Q.** What about the “Morris water maze, A0 (Target quadrant) (Figure 6m)” value (APP/PS1 mice; [3]) of the same compound?
**A.** 14.5 and 35 and 17.5 and 31.5 and 19.5 and 29.5 and 37.5 and 7.5 and 9.5 and 20 and 10 and 18 and 24 and 10.5 and 30.5 and 43

**Q.** And the “Morris water maze, Non-Target quadrant (Figure 6l)” value (APP/PS1 mice; [3])?
**A.** 15.1667 and 8.333 and 14.1667 and 9.5 and 13.5 and 10.1667 and 7.5 and 17.5 and 16.8333 and 13.3333 and 16.6667 and 14 and 12 and 16.5 and 9.833 and 5.667

**Q.** What about the “Morris water maze, Target quadrant (Figure 6l)” value (APP/PS1 mice; [3]) of the same compound?
**A.** 14.5 and 35 and 17.5 and 31.5 and 19.5 and 29.5 and 37.5 and 7.5 and 9.5 and 20 and 10 and 18 and 24 and 10.5 and 30.5 and 43

**Q.** What about the “Morris water maze, quadrant A1 (Figure 6m)” value (APP/PS1 mice; [3]) of the same compound?
**A.** 17.5 and 9 (2×) and 20 and 6.5 (2×) and 15.5 (2×) and 32 and 21 and 8.5 and 28 and 14 and 22 and 6 and 3

**Q.** And the “Morris water maze, quadrant A2 (Figure 6m)” value (APP/PS1 mice; [3])?
**A.** 16 and 9.5 and 14 and 9 and 21.5 and 19 and 2 and 2.5 and 10 and 15 (2×) and 13.5 and 11.5 and 21 and 19.5 and 7

**Q.** And the “Morris water maze, quadrant A3 (Figure 6m)” value (APP/PS1 mice; [3])?
**A.** 12 and 6.5 (2×) and 8.5 and 13 and 10 and 5 (2×) and 18 and 19.5 and 16.5 and 7 (2×) and 14.5 and 9 and 4

**Q.** And the “memory formation, Morris water maze” value (APP/PS1 mice; N-AS vs vehicle APP/PS1)?
**A.** largely protected from this defect

**Q.** What about the “Morris water maze learning curve (Figure 6k), group mean (평균)” value (shortened to “Morris water maze learning curve … (평균)”) (APP/PS1 mice; day 1) of the same compound?
**A.** 42.2833

**Q.** And the “Morris water maze learning curve (Figure 6k)” value (APP/PS1 mice; day 1)?
**A.** 60 and 38.125 and 47.875 and 37.75 and 40.875 and 47.75 and 32.5 and 22.875 and 46 and 29.25 and 55.625

**Q.** What about the “Morris water maze learning curve … (평균)” value (APP/PS1 mice; day 2) of the same compound?
**A.** 36.025

**Q.** What about the “Morris water maze learning curve (Figure 6k)” value (APP/PS1 mice; day 2) of the same compound?
**A.** 40.25 and 39.875 and 60 and 24.625 and 34.625 and 51 and 16.875 and 15.75 and 46.75 and 19.875

**Q.** And the “Morris water maze learning curve … (평균)” value (APP/PS1 mice; day 3)?
**A.** 36.0583

**Q.** What about the “Morris water maze learning curve (Figure 6k)” value (APP/PS1 mice; day 3) of the same compound?
**A.** 37.5 and 38.875 and 60 and 43.625 and 20.125 and 43.25 and 17.375 and 42 and 34.75 and 24.875

**Q.** And the “Morris water maze learning curve … (평균)” value (APP/PS1 mice; day 4)?
**A.** 34.2583

**Q.** And the “Morris water maze learning curve (Figure 6k)” value (APP/PS1 mice; day 4)?
**A.** 37.125 and 35.25 and 60 and 49.75 and 25.875 and 12 and 37.5 and 8.375 and 36.125

**Q.** What about the “Morris water maze learning curve … (평균)” value (APP/PS1 mice; day 5) of the same compound?
**A.** 34.3417

**Q.** And the “Morris water maze learning curve (Figure 6k)” value (APP/PS1 mice; day 5)?
**A.** 43.125 and 17.125 and 55.5 and 30.25 and 26.375 and 55.25 and 23.875 and 38.5 and 13.5 and 31.125

**Q.** And the “Morris water maze learning curve … (평균)” value (APP/PS1 mice; day 6)?
**A.** 32.3333

**Q.** And the “Morris water maze learning curve (Figure 6k)” value (APP/PS1 mice; day 6)?
**A.** 28.5 and 25 and 50.375 and 17.375 and 47.125 and 52.75 and 16.25 and 60 and 13.25 and 35.25

**Q.** What about the “Morris water maze learning curve … (평균)” value (APP/PS1 mice; day 7) of the same compound?
**A.** 30.9667

**Q.** What about the “Morris water maze learning curve (Figure 6k)” value (APP/PS1 mice; day 7) of the same compound?
**A.** 47.875 and 26.5 and 46.5 and 22.75 and 19 and 33.75 and 27.5 and 50.25 and 12.375 and 43

**Q.** What about the “Morris water maze learning curve … (평균)” value (APP/PS1 mice; day 8) of the same compound?
**A.** 23.3417

**Q.** And the “Morris water maze learning curve (Figure 6k)” value (APP/PS1 mice; day 8)?
**A.** 37.125 and 17.75 and 27.875 and 22.625 and 16.625 and 24.375 and 5.5 and 25.125 and 14.875 and 41

**Q.** What about the “Morris water maze learning curve … (평균)” value (APP/PS1 mice; day 9) of the same compound?
**A.** 22.7083

**Q.** And the “Morris water maze learning curve (Figure 6k)” value (APP/PS1 mice; day 9)?
**A.** 32.25 and 21.375 and 17.5 and 11.125 and 27.125 and 18.875 and 12.75 and 21.625 and 50.375 and 15.875

**Q.** And the “Morris water maze learning curve … (평균)” value (APP/PS1 mice; day 10)?
**A.** 21.95

**Q.** And the “Morris water maze learning curve (Figure 6k)” value (APP/PS1 mice; day 10)?
**A.** 23.625 and 39.125 and 23.5 and 13 and 13.75 and 40.75 and 22.25 and 36.625 and 14.75 and 17.75
